This assay has as its system anti-EGF rabbit polyclonal antibodies (Abcam 9695). Put plainly: Dot blot of cellulose-immobilized EGF decapeptides with anti-EGF polyclonal antibodies.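 On Intensity (Staining Value): higher gray value means stronger antibody binding with above 120 very strong.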 It counts as binding. As to conditions: for interaction with polyclonal anti-EGF antibodies (in words) / Intensity (ability to interact with polyclonal antibodies): peptide on cellulose matrix; for Intensity (ability to interact with polyclonal antibodies): antibody 1:1000, 1 h room temperature; for Intensity (Staining Value): scanned spot, 256 gray scale (ImageJ). As to the method: Dot blot reactions were performed using primary anti-EGF rabbit polyclonal antibodies (Abcam 9695) (Cambridge, UK) and secondary goat anti-rabbit antibodies conjugated with HRP (Abcam 205718). The procedure for using the dot blot method to analyze peptides immobilized on a cellulose matrix through a triazine linker was optimized in a previous study by the authors and ensures the elimination of non-specific impacts.
The solution was then removed, and the membranes were treated overnight at room temperature with blocking buffer (3% BSA in PBS, 40 mL, pH 7.4). The cellulose sheets were then washed with PBS buffer (40 mL, 5 min, pH 7.4). […] The membranes were then washed with Tween-80 solution in PBS (0.4%, 40 mL, 2 × 5 min) and PBS (40 mL, 5 min). Goat Anti-Rabbit IgG antibodies were conjugated with HRP (Abcam 205718, 20 μL) diluted 1:1000 in 1% BSA in PBS (20 mL, pH 7.4) and then incubated with cellulose sheets for 30 min at room temperature. The membranes were then washed with Tween-80 solution in PBS (0.4%, 40 mL, 2 × 5 min) and PBS (40 mL, 5 min). Visualization of the reactions was performed using 4-chloro-1-naphtol (Sigma–Aldrich). The cellulose sheets were placed into 0.15 mg/mL solution of 4-chloro-1-naphtol in MeOH:PBS (1:5, 15 mL) with the addition of 7.5 μL of H2O2; reaction time was 30 min. The membranes were washed with distilled water, air-dried, and scanned. In places where immunological complexes developed, blue precipitate was observed. The applied dot blot test procedure ensures the elimination of non-specific interactions. Additionally, using the same SPOT synthesis procedure, a library of type IV collagen fragments was obtained. […] The gray levels of the immunological reactions were determined using ImageJ Version 1.53n7 (https://imagej.nih.gov/ij/index.html, accessed on 17 October 2021) computer imaging software.

On to H-^43QYRDLKWWEL^52-matrix [C3], for which the “interaction with polyclonal anti-EGF antibodies (in words)” value (“interaction” for short) is listed as “show interactions with polyclonal anti-EGF antibodies”; the “Intensity (ability to interact with polyclonal antibodies)” value is “+ (strong (+), for which the staining intensity value was in the range of 120–90)”; the “Intensity (Staining Value)” value is recorded as 99.4.

Regarding H-^33CVVGYIGERC^42-matrix [B13], the “Intensity (ability to interact with polyclonal antibodies)” value is given as “+/− (moderately strong (+/−), for which the color intensity value was in the range of 90–45)” and the “Intensity (Staining Value)” value is 65.7.

Regarding H-^2SDSECPLSHD^11-matrix [A2], the “Intensity (ability to interact with polyclonal antibodies)” value is “− ((−), where the color intensity value was <45)” and the “Intensity (Staining Value)” value worked out at 22.3.

Consider H-^9SHDGYCLHDG^18-matrix [A9], for which the “Intensity (ability to interact with polyclonal antibodies)” value is given as “+/− (moderately strong (+/−), for which the color intensity value was in the range of 90–45)” and the “Intensity (Staining Value)” value came to 63.8.

As for H-^23IEALDKYACN^32-matrix [B3], the “interaction” value is reported as “lower affinity for antibodies”; the “Intensity (ability to interact with polyclonal antibodies)” value was “+/− (moderately strong (+/−), for which the color intensity value was in the range of 90–45)”; the “Intensity (Staining Value)” value amounted to 63.8.

As for H-^44YRDLKWWELR^53-matrix [C4], the “interaction” value is “show interactions with polyclonal anti-EGF antibodies”; the “Intensity (ability to interact with polyclonal antibodies)” value is on record as “+ (strong (+), for which the staining intensity value was in the range of 120–90)”; the “Intensity (Staining Value)” value is 104.2.

With H-^5ECPLSHDGYC^14-matrix [A5], the “Intensity (ability to interact with polyclonal antibodies)” value is on record as “+/− (moderately strong (+/−), for which the color intensity value was in the range of 90–45)”.

As to H-^13YCLHDGVCMY^22-matrix [A13], the “Intensity (ability to interact with polyclonal antibodies)” value is “+ (strong (+), for which the staining intensity value was in the range of 120–90)” and the “Intensity (Staining Value)” value came to 93.0.

H-^7PLSHDGYCLH^16-matrix [A7]: the “Intensity (ability to interact with polyclonal antibodies)” value is “+/− (moderately strong (+/−), for which the color intensity value was in the range of 90–45)” and the “Intensity (Staining Value)” value is recorded as 62.2.

Turning to H-^31CNCVVGYIGE^40-matrix [B11], the “Intensity (ability to interact with polyclonal antibodies)” value was “+/− (moderately strong (+/−), for which the color intensity value was in the range of 90–45)” and the “Intensity (Staining Value)” value was 60.3.

For H-^32NCVVGYIGER^41-matrix [B12], the “Intensity (ability to interact with polyclonal antibodies)” value was “+/− (moderately strong (+/−), for which the color intensity value was in the range of 90–45)” and the “Intensity (Staining Value)” value was 56.3.

As for H-^15LHDGVCMYIE^24-matrix [A15], the “interaction” value is reported as “no affinity for antibodies”; the “Intensity (ability to interact with polyclonal antibodies)” value is “− ((−), where the color intensity value was <45)”; the “Intensity (Staining Value)” value is recorded as 41.6.

Regarding H-^20CMYIEALDKY^29-matrix [A20], the “Intensity (ability to interact with polyclonal antibodies)” value is “++ (very strong (++), for which the staining intensity value was >120)” and the “Intensity (Staining Value)” value is listed as 132.8.

Consider H-^11DGYCLHDGVC^20-matrix [A11], for which the “Intensity (ability to interact with polyclonal antibodies)” value is “+ (strong (+), for which the staining intensity value was in the range of 120–90)” and the “Intensity (Staining Value)” value was 90.5.

As for H-^27DKYACNCVVG^36-matrix [B7], the “Intensity (ability to interact with polyclonal antibodies)” value was “+/− (moderately strong (+/−), for which the color intensity value was in the range of 90–45)” and the “Intensity (Staining Value)” value was 55.3.

On to H-^30ACNCVVGYIG^39-matrix [B10], for which the “Intensity (ability to interact with polyclonal antibodies)” value was “+/− (moderately strong (+/−), for which the color intensity value was in the range of 90–45)” and the “Intensity (Staining Value)” value is recorded as 58.5.

On to H-^19VCMYIEALDK^28-matrix [A19], for which the “Intensity (ability to interact with polyclonal antibodies)” value is given as “++ (very strong (++), for which the staining intensity value was >120)” and the “Intensity (Staining Value)” value came to 128.0.

H-^25ALDKYACNCV^34-matrix [B5]: the “Intensity (ability to interact with polyclonal antibodies)” value is on record as “− ((−), where the color intensity value was <45)” and the “Intensity (Staining Value)” value stood at 29.6.

Turning to H-^29YACNCVVGYI^38-matrix [B9], the “Intensity (ability to interact with polyclonal antibodies)” value was “+ (strong (+), for which the staining intensity value was in the range of 120–90)” and the “Intensity (Staining Value)” value is listed as 91.1.

Regarding H-^17DGVCMYIEAL^26-matrix [A17], the “Intensity (ability to interact with polyclonal antibodies)” value is given as “+/− (moderately strong (+/−), for which the color intensity value was in the range of 90–45)” and the “Intensity (Staining Value)” value is recorded as 88.9.

Turning to H-^39GERCQYRDLK^48-matrix [B19], the “interaction” value was “do not exhibit the ability to interact with antibodies”; the “Intensity (ability to interact with polyclonal antibodies)” value was “− ((−), where the color intensity value was <45)”; the “Intensity (Staining Value)” value was 28.9.

As for H-^24EALDKYACNC^33-matrix [B4], the “interaction” value is “no affinity for antibodies”; the “Intensity (ability to interact with polyclonal antibodies)” value is on record as “− ((−), where the color intensity value was <45)”; the “Intensity (Staining Value)” value is 30.5.

As for H-^37YIGERCQYRD^46-matrix [B17], the “Intensity (ability to interact with polyclonal antibodies)” value is “+ (strong (+), for which the staining intensity value was in the range of 120–90)” and the “Intensity (Staining Value)” value is 106.2.

For the substance H-^14CLHDGVCMYI^23-matrix [A14], the “interaction” value is “inactive”; the “Intensity (ability to interact with polyclonal antibodies)” value was “− ((−), where the color intensity value was <45)”; the “Intensity (Staining Value)” value is 31.6.

Take H-^18GVCMYIEALD^27-matrix [A18]: the “Intensity (ability to interact with polyclonal antibodies)” value is “+ (strong (+), for which the staining intensity value was in the range of 120–90)” and the “Intensity (Staining Value)” value was determined as 116.0.

Regarding H-^6CPLSHDGYCL^15-matrix [A6], the “Intensity (ability to interact with polyclonal antibodies)” value is “+/− (moderately strong (+/−), for which the color intensity value was in the range of 90–45)”.

With H-^36GYIGERCQYR^45-matrix [B16], the “Intensity (ability to interact with polyclonal antibodies)” value is recorded as “+ (strong (+), for which the staining intensity value was in the range of 120–90)” and the “Intensity (Staining Value)” value turned out to be 98.0.

As to H-^22YIEALDKYAC^31-matrix [B2], the “Intensity (ability to interact with polyclonal antibodies)” value is on record as “++ (very strong (++), for which the staining intensity value was >120)” and the “Intensity (Staining Value)” value is listed as 122.4.

For H-^35VGYIGERCQY^44-matrix [B15], the “Intensity (ability to interact with polyclonal antibodies)” value is listed as “+ (strong (+), for which the staining intensity value was in the range of 120–90)” and the “Intensity (Staining Value)” value is 91.0.

In the case of H-^16HDGVCMYIEA^25-matrix [A16], the “interaction” value was “low affinity”; the “Intensity (ability to interact with polyclonal antibodies)” value is on record as “− ((−), where the color intensity value was <45)”; the “Intensity (Staining Value)” value amounted to 44.8.

With H-^28KYACNCVVGY^37-matrix [B8], the “Intensity (ability to interact with polyclonal antibodies)” value is “+/− (moderately strong (+/−), for which the color intensity value was in the range of 90–45)” and the “Intensity (Staining Value)” value came out at 63.5.

In the case of H-^40ERCQYRDLKW^49-matrix [B20], the “interaction” value is recorded as “do not exhibit the ability to interact with antibodies”.

As for H-^38IGERCQYRDL^47-matrix [B18], the “Intensity (ability to interact with polyclonal antibodies)” value is “+/− (moderately strong (+/−), for which the color intensity value was in the range of 90–45)” and the “Intensity (Staining Value)” value is given as 76.1.

Regarding H-^26LDKYACNCVV^35-matrix [B6], the “Intensity (ability to interact with polyclonal antibodies)” value is recorded as “+/− (moderately strong (+/−), for which the color intensity value was in the range of 90–45)” and the “Intensity (Staining Value)” value came out at 46.6.

For the substance H-^8LSHDGYCLHD^17-matrix [A8], the “Intensity (ability to interact with polyclonal antibodies)” value is listed as “+/− (moderately strong (+/−), for which the color intensity value was in the range of 90–45)” and the “Intensity (Staining Value)” value was 59.3.

On to H-^1NSDSECPLSH^10-matrix [A1], for which the “Intensity (ability to interact with polyclonal antibodies)” value was “− ((−), where the color intensity value was <45)” and the “Intensity (Staining Value)” value is reported as 14.8.

H-^12GYCLHDGVCM^21-matrix [A12]: the “Intensity (ability to interact with polyclonal antibodies)” value is “+ (strong (+), for which the staining intensity value was in the range of 120–90)” and the “Intensity (Staining Value)” value turned out to be 92.4.

As to H-^21MYIEALDKYA^30-matrix [B1], the “Intensity (ability to interact with polyclonal antibodies)” value is “++ (very strong (++), for which the staining intensity value was >120)” and the “Intensity (Staining Value)” value was found to be 130.3.

These data come from PMC10855902 (International Journal of Molecular Sciences, 2024).
